{
  "source": "patent US12077495B2",
  "about": "(priority 2018, dated 2024)",
  "key": {"[1]": {"biological_target": "T1, specific GHB sites (high-affinity GHB binding site) (Rattus norvegicus, UniProt P11275)", "T1 construct": "using crude synaptic membranes prepared from rat cortex; from tissue; host or cells: rat cortex, crude synaptic membranes", "T1 sequence (P11275 whole entry)": "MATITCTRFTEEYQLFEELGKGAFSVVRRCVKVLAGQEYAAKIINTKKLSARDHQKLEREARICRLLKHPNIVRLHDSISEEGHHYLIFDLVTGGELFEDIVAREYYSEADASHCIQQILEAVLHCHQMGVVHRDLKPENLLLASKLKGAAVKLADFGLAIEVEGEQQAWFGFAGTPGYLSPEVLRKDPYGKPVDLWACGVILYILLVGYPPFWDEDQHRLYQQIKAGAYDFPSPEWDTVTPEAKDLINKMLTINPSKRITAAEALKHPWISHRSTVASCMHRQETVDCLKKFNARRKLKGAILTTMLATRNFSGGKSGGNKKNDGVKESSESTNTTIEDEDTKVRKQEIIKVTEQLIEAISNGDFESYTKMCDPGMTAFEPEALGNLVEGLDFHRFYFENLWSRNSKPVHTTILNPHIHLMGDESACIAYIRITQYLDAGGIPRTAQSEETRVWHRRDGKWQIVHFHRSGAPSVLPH", "experiment": "biochemical", "settings": "pH 6"}, "[2]": {"biological_target": "T1, specific GHB sites (high-affinity GHB binding site)", "experiment": "biochemical"}, "[3]": {"tested_on": "GABAB(1) receptor knock-out mice", "experiment": "Glucose metabolism study, 14C-2-deoxyglucose autoradiography", "format": "in vivo", "settings": "200 mg/kg i.p., after 45 min"}, "[4]": {"tested_on": "wild-type and GABAB receptor knock-out mice", "experiment": "Temperature recording (hypothermia) in mice", "format": "in vivo", "settings": "750 mg/kg i.p., 2 hrs", "experimental": "Mice were pre-treated with saline injections (0.9% saline) i.p. for 4 days prior to the experiment to minimize stress on the day of the experiment. Experiments were conducted in a quiet room, in which mice were left undisturbed for at least two hrs prior to the experiment. After the i.p. injections, mice were left in their home cages for two hrs, had core body temperature recorded, and were then euthanized. The core body temperature was measured rectally by a thermometer (model DM 852; ELLAB Instruments; Copenhagen, Denmark) via a lubricated thermistor probe (model PRA-22002-A, 2.2 mm diameter; ELLAB Instruments). Mice were held at the base of the tail and measured until a stable temperature measurement was obtained.\nBy contrast, compound A had no effect on hypothermia in either wild-type or knock-out mice."}, "[5]": {"biological_target": "T2, GABAB receptor (Rattus norvegicus, UniProt Q9Z0U4)", "T2 construct": "using crude synaptic membranes prepared from rat cortex; from tissue; host or cells: rat cortex, crude synaptic membranes", "T2 sequence (Q9Z0U4 17-960 limits assumed)": "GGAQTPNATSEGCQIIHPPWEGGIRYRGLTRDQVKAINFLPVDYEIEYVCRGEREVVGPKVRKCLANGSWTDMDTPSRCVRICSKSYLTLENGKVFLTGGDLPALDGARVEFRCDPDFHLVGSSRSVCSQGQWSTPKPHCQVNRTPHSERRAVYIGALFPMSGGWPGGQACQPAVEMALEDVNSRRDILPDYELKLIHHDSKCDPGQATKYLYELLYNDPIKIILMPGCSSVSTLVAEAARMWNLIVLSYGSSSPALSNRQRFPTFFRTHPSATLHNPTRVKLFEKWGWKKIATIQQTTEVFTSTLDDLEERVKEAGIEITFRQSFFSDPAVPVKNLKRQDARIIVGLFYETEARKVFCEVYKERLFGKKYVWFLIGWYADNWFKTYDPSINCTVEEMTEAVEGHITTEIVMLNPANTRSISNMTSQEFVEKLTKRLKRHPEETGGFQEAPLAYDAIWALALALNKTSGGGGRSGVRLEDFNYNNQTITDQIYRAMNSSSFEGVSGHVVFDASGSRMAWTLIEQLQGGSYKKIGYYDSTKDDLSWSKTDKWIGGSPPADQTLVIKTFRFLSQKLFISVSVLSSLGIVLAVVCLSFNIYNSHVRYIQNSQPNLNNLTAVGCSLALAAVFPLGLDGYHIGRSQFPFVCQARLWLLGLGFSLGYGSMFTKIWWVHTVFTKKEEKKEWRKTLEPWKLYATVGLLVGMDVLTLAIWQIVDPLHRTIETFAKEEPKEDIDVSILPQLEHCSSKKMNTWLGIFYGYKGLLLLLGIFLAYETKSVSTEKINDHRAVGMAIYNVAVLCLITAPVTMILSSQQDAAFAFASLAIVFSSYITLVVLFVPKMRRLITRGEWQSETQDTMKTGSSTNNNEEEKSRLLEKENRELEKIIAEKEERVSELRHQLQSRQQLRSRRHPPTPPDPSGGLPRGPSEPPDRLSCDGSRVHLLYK", "T2 sequence (O88871 41-940 partner)": "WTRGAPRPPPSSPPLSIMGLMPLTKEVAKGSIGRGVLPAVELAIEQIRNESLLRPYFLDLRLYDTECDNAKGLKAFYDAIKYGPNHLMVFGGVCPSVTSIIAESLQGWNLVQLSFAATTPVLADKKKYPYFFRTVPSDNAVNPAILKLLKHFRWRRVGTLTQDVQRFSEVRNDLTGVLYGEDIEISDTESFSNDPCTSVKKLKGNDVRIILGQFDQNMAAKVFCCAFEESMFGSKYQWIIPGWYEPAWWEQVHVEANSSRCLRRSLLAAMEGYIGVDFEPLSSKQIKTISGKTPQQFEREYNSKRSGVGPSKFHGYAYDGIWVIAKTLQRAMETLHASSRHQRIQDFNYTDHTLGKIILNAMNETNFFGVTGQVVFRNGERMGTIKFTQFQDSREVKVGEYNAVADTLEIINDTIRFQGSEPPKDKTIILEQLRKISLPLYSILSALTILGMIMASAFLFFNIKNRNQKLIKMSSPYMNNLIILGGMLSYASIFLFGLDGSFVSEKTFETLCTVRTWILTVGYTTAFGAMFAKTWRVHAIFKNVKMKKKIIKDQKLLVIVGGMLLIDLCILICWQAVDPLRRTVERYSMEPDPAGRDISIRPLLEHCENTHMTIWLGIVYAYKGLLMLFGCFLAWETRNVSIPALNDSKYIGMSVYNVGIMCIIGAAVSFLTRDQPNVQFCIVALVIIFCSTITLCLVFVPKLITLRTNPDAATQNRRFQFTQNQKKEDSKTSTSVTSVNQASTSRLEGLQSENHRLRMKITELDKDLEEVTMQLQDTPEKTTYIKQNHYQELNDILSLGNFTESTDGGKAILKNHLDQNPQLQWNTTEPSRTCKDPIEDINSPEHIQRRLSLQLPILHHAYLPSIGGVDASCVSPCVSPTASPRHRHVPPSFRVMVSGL", "experiment": "3H-GABA binding assay for GABAB, rat cortex membranes", "experimental": "Following incubation by rapid filtration through GF/C unifilters (PerkinElmer, Boston, MA, USA), using a 96-well Packard cell-harvester (PerkinElmer) and three fast washes with ice-cold binding buffer, microscint scintillation fluid (PerkinElmer) was added to the dried filters, and the amount of filter-bound radioactivity was quantified in a Packard TopCount microplate scintillation counter (PerkinElmer). […] The binding reactions were terminated by rapid filtration through GF/C filters (Whatman), soaked in 0.1% polyethylene imine, using a Brandell 48-well harvester and rapid washing with ice-cold binding buffer. […] Data are presented as % specific binding (of control), and IC50 or Ki values calculated by means of non-linear regression curve-fitting and the Cheng-Prusoff equation, respectively."}, "[6]": {"tested_on": "photothrombotic focal ischemia in C57BL/6J mice", "experiment": "Photothrombotic mouse model of focal ischemia, infarct volume", "format": "in vivo", "settings": "day 7; for infarct size: saline 5.55", "experimental": "(§1) All procedures were performed in accordance with the guidelines on the care and use of laboratory animals set out by the University of Otago, Animal Research Committee and the Guide for Care and Use of Laboratory Animals (NIH Publication No. 85-23, 1996). All in vivo studies were approved by the University of Otago Animal Ethics Committee and are reported according to the ARRIVE (Animal Research: Reporting In Vivo Experiments) guidelines. The photochemical cortical lesion model resembles situations of acute brain injury related clinically to stroke and traumatic brain injury (TBI). Focal ischemia was induced by photothrombosis in male C57BL/6J mice (8-10 weeks) weighing ˜23-30 g as previously described (Clarkson et al., 2010). Under anesthesia with isoflurane (2% to 2.5% in O2) mice were placed in a stereotactic apparatus, the skull exposed through a midline incision, cleared of connective tissue and dried. A cold light source (KL1500 LCD, Zeiss, Auckland, New Zealand) attached to a 40× objective providing a 2-mm diameter illumination was positioned 1.5 mm lateral from bregma. Then, 0.2 ml of Rose Bengal (Sigma-Aldrich, Auckland, New Zealand; 10 mg/ml in normal saline) was administered i.p. After 5 min, the brain was illuminated through the exposed intact skull for 15 min, while keeping body temperature at 37.0±0.3° C. degrees using a heating pad (Harvard apparatus, Holliston, MA, USA). The skin was glued and animals left in a cage placed on a heating pad during the wake-up phase. Mice were housed under a 12-hr light/dark cycle with ad libitum access to food and water. Further, the mice were monitored and weighed on a daily basis.\n(§2) For in vivo studies, all compounds were dissolved in a mixture of sterile saline and H2O to obtain isotonicity (0.9%) and administered as 10 mg/ml and 10 μl of solution per gram mouse body weight. The injection of compound (i.p.) was performed 30 min, 3, 6 or 12 hrs after induction of the photothrombotic stroke. The vehicle groups received a corresponding volume of saline (0.9%) at the same time points (30 min, 3, 6 or 12 hrs).\nFor quantification of the infarcted area, animals were perfused with saline and then with 4% paraformaldehyde (PFA) and the brain dissected out and submerged in 4% PFA for post-fixing overnight. Then the brains were moved to 30% sucrose solution and kept at 4° C. until processing. Brains were cut in 30 μm sections, free-floating in anti-freeze media. Sections were mounted, stained for cresyl violet and the infarct volumes determined by measuring every 6th section through the entire infarct as described in Lie et al (2017). All analyses were performed by an observer blinded to the treatment groups. Brains from the pMCAO studies were flash-frozen in CO2 (gas) and processed into six parallel series of sections (30 μm). Separate series were collected on glass slides and used for infarct size analysis or in Eppendorf tubes and used for qPCR. The glass slides were stored at −80° C. until further processing, and then Cresyl-Violet stained and quantified as described for the photothrombotic photochemical method."}, "[7]": {"tested_on": "photothrombotic focal ischemia in C57BL/6J mice", "experiment": "Photothrombotic model, behavioural assessment (grid-walking and cylinder tasks)", "format": "in vivo", "settings": "day 7", "experimental": "as §1, §2\nForelimb motor performance was determined using the cylinder and grid-walking tasks as previously described (Clarkson et al., 2010). All animals were tested both in a pre- and post-testing session, 1 week before and 3 days or 7 days after the ischemic insult, respectively. Observers who scored the behaviour were blinded to the treatment groups."}, "[8]": {"biological_target": "T3, CAMK2A (Rattus norvegicus, UniProt P11275)", "T3 construct": "host or cells: HEK293T", "T3 sequence (P11275 whole entry)": "as the sequence (P11275 whole entry) above", "experiment": "biochemical", "format": "binding", "settings": "whole cell lysates of CAMK2A-transfected HEK293T cells", "experimental": "Cells were transfected with rat CAMK2A (Origene construct RR201121) or rat CAMK2B (Origene construct RR200520) using PolyFect (Qiagen, West Sussex, UK) according to the manufacturer's protocol. Whole cell homogenates were prepared 48 hr post-transfection by washing the cells with ice-cold 1×PBS and harvesting by scraping. Cells were collected and centrifuged for 10 min at 1000×g. Cell pellets were resuspended in ice-cold 1×PBS and homogenized using 2×1 mm zirkonium beads in a bullet blender for 20 s at max speed (NextAdvance, NY, USA). Homogenates were cleared by centrifugation (10 min, 4° C., 14.000×g). Protein concentration was determined using the Bradford protein assay. 150-200 μg protein was incubated with 5 nM ^3H-A and test compound in 1 ml total volume for 1 hr at 0-4° C. […] Proteins were then precipitated by addition of ice-cold acetone (4× of the assay volume), vortexing and incubation at −20° C. for 1 hr. Proteins were filtrated rapidly through GF/C unifilters (Whatman) and washed. The dried filters were added scintillation liquid and radioactivity measured on a Tricarb 2100 Scintillation counter (Packard).\nA) Principle of photoaffinity labelling workflow. […] After introduction of biotin through a Staudinger-Bertozzi ligation to EZ-Link™ Phosphine-PEG3-Biotin (ThermoFisher Scientific), the biotin-labelled proteins were affinity-purified and subjected to LC-MS/MS analysis. […] C)^3H-A binding to cortical membranes from CAMK2A and CAMK2B knock-out mouse brains.\nHuman/rat CAMK2A expressed in HEK cells was assayed in an in-house established ^3H-A filtration binding assay performed on whole cell lysates of CAMK2A-transfected HEK293T cells."}, "[9]": {"settings": "read-out: Ki, inhibition of 3H-B binding"}, "[10]": {"settings": "FIG. 1D, read-out: Ki, competition in the 3H-A binding assay"}, "[11]": {"settings": "50 mg/kg i.p. 3 hrs after injury"}},
  "note": "Where two headings read alike, the source gives them in different places.",
  "data": [
    {"smiles": "Cc1ccc2c(c1)CCC/C(=C\\C(=O)O)C2O", "note": "(stereo not drawn) [Compound 7, (E)-2-(2-methyl-5-hydroxy-5,7,8,9-tetrahydro-6H-benzo[7]annulen-6-ylidene)acetic acid]", "values": [
      {"measurement": "Ki", "setting": "[1]", "result": 325, "unit": "nM"}
    ]},
    {"smiles": "O=C(O)/C=C1\\CCCc2c(-c3ccccc3)cccc2C1O", "note": "(stereo not drawn) [Compound 9, (E)-2-(1-phenyl-5-hydroxy-5,7,8,9-tetrahydro-6H-benzo[7]annulen-6-ylidene)acetic acid]", "values": [
      {"measurement": "Ki", "setting": "[1]; [9]", "result": 382, "unit": "nM"}
    ]},
    {"smiles": "O=C(O)/C=C1\\CCCc2cc(/C=C/c3ccccc3)ccc2C1O", "note": "(stereo not drawn) [Compound 3, (E)-2-(5-hydroxy-2-((E)-styryl)-5,7,8,9-tetrahydro-6H-benzo[7]annulen-6-ylidene)acetic acid]", "values": [
      {"measurement": "Ki", "setting": "[1]", "result": 30, "unit": "nM"},
      {"measurement": "Ki", "setting": "[2]; pH 7.4, read-out: Ki, 3H-A binding assay", "result": 87, "unit": "nM"},
      {"measurement": "Ki", "setting": "[2]; read-out: Ki, inhibition of 3H-A binding, pH 6", "result": 50, "unit": "nM"}
    ]},
    {"smiles": "O=C1CCCO1", "note": "[GBL, γ-butyrolactone]", "values": [
      {"measurement": "cerebral metabolic rate of glucose, hippocampus", "setting": "[3]; saline 9.74", "result": 6.45, "unit": "nCi/ROI/min"},
      {"measurement": "cerebral metabolic rate of glucose, frontal cortex", "setting": "[3]; saline 10.46", "result": 6.78, "unit": "nCi/ROI/min"},
      {"measurement": "effect on body temperature (hypothermia)", "setting": "[4]", "result": "strong decreased in body temperature"}
    ]},
    {"smiles": "O=C(O)Cc1ccccc1Nc1c(Cl)cccc1Cl", "note": "[diclofenac, reference compound]", "values": [
      {"measurement": "Ki", "setting": "[2]; [10]", "result": 4700, "unit": "nM"}
    ]},
    {"smiles": "O=C(O)/C=C1\\CCCc2cc(F)ccc2C1O", "note": "(stereo not drawn) [Compound 6, (E)-2-(2-fluoro-5-hydroxy-5,7,8,9-tetrahydro-6H-benzo[7]annulen-6-ylidene)acetic acid]", "values": [
      {"measurement": "Ki", "setting": "[1]", "result": 108, "unit": "nM"}
    ]},
    {"smiles": "O=C(O)/C=C1\\CCCc2cc(I)ccc2C1O", "note": "(stereo not drawn) [Compound 5, (E)-2-(2-iodo-5-hydroxy-5,7,8,9-tetrahydro-6H-benzo[7]annulen-6-ylidene)acetic acid]", "values": [
      {"measurement": "Ki", "setting": "[1]; [9]", "result": 53, "unit": "nM"}
    ]},
    {"smiles": "O=C(O)/C=C1\\CCCc2ccc(Br)cc2C1O", "note": "(stereo not drawn) [Compound 10, (E)-2-(3-bromo-5-hydroxy-5,7,8,9-tetrahydro-6H-benzo[7]annulen-6-ylidene)acetic acid]", "values": [
      {"measurement": "Ki", "setting": "[1]; [9]", "result": 9690, "unit": "nM"}
    ]},
    {"smiles": "O=C(O)/C=C1\\CCCc2cc(Cl)ccc2C1O", "note": "(stereo not drawn) [Compound 4, (E)-2-(2-chloro-5-hydroxy-5,7,8,9-tetrahydro-6H-benzo[7]annulen-6-ylidene)acetic acid]", "values": [
      {"measurement": "Ki", "setting": "[1]; [9]", "result": 52, "unit": "nM"}
    ]},
    {"smiles": "O=C(O)CCCO", "note": "[GHB, γ-hydroxybutyric acid]", "values": [
      {"measurement": "inhibition of 3H-GABA binding to GABAB receptor", "setting": "[5]; at both 0.1 mM and 1 mM", "result": "could inhibit"}
    ]},
    {"smiles": "O=C(O)/C=C1\\CCCc2cc(-c3ccccc3)ccc2C1O", "note": "(stereo not drawn) [Compound 2, (E)-2-(5-hydroxy-2-phenyl-5,7,8,9-tetrahydro-6H-benzo[7]annulen-6-ylidene)acetic acid]", "values": [
      {"measurement": "decrease of infarct size vs saline", "setting": "[6]; [11]", "result": 39, "unit": "%"},
      {"measurement": "infarct size", "setting": "[6]; [11]", "result": 3.4, "unit": "mm^3"},
      {"measurement": "decrease of infarct size vs saline", "setting": "[6]; 175 mg/kg i.p. 3 or 6 hrs after injury", "result": "38-46%"},
      {"measurement": "infarct size", "setting": "[6]; 175 mg/kg i.p. 3 hrs after injury", "result": 3.44, "unit": "mm^3"},
      {"measurement": "infarct size", "setting": "[6]; 175 mg/kg i.p. 6 hrs after injury", "result": 2.98, "unit": "mm^3"},
      {"measurement": "motor performance in both asymmetry tests", "setting": "[7]; 50 mg/kg 3 hrs after injury", "result": "significantly improved"},
      {"measurement": "number of foot faults (grid-walking)", "setting": "[7]; 175 mg/kg, 6 hr group", "result": "significantly reduced"},
      {"measurement": "time spent on affected paw (cylinder task)", "setting": "[7]; 175 mg/kg, both 3 and 6 hrs", "result": "significantly reduced"}
    ]},
    {"smiles": "O=C(O)Cc1cc(O)ccc1Nc1c(Cl)cccc1Cl", "note": "[C, 2-((2,6-dichlorophenyl)amino)-5-hydroxyphenylacetic acid]", "values": [
      {"measurement": "inhibition of 3H-GABA binding to GABAB receptor", "setting": "[5]; at a concentration of 1 mM", "result": "limited inhibition"}
    ]},
    {"smiles": "O=C(O)/C=C1\\CCCc2ccccc2C1O", "note": "(stereo not drawn) [B, (E,RS)-6,7,8,9-tetrahydro-5-hydroxy-5H-benzocyclohept-6-ylidene acetic acid, reference compound]", "values": [
      {"measurement": "Ki", "setting": "[8]", "result": 3710, "unit": "nM"},
      {"measurement": "Ki", "setting": "[1]", "result": 440, "unit": "nM"}
    ]},
    {"smiles": "O=C(O)Cc1ccccc1Nc1c(Cl)cc(O)cc1Cl", "note": "[4′-hydroxydiclofenac, reference compound]", "values": [
      {"measurement": "Ki", "setting": "[2]; [10]", "result": 16000, "unit": "nM"}
    ]},
    {"smiles": "O=C(O)/C=C1\\CCCc2c(Br)cccc2C1O", "note": "(stereo not drawn) [Compound 8, (E)-2-(1-bromo-5-hydroxy-5,7,8,9-tetrahydro-6H-benzo[7]annulen-6-ylidene)acetic acid]", "values": [
      {"measurement": "Ki", "setting": "[1]", "result": 225, "unit": "nM"}
    ]}
  ]
}
